The values below come from US20040063716A1, “Cholesterol biosynthesis inhibitors containing as the active ingredient tricyclic spiro compounds” (priority 2000, published 2004).

pIC50: −log10 of the molar value.

What all share (format): biochemical
One test has as its target T1, human FXa (Homo sapiens, UniProt P00742).
T1 construct: purchased Enzyme Research Laboratories, Inc
Kind of test: Measurement of human FXa inhibitory action (chromogenic substrate S-2222). Particulars: human FXa 0.019 U/ml, S-2222 0.4 mM, 37° C., pH 7.5. As to the method: In vitro FXa inhibitory activity is measured in accordance with the method of Kettner et al. (Journal of Biological Chemistry, vol. 265, pages 18289 to 18297, 1990). To be more specific, human FXa (product of Enzyme Research Laboratories, Inc., 0.019 U/ml) is mixed with a test compound diluted with dimethylsulfoxide (DMSO) at various concentrations and a synthetic substrate S-2222 (Chromogenix AB, 0.4 mM). The mixtures are incubated at 37° C. in Tris-hydrochloric acid buffer (pH 7.5) while the absorbance at 405 nm is measured continuously. To calculate the FXa inhibitory activity of the test compound, the initial reaction velocity is compared with the value for a control containing no test compound. It should be noted that the FXa inhibitory activity of the test compound is generally indicated as IC50.

A further test deals with human plasma. Kind of test: Measurement of intrinsic coagulation time (APTT) in vitro. On the procedure:
Activated partial thromboplastin time (APTT) is measured in the presence of the test compounds diluted at various concentrations. A test compound diluted with DMSO at various concentrations is mixed with human plasma and APTT reagent. The mixture is incubated at 37° C. for 2 minutes; calcium chloride (25 mM) is added to the mixture; and the coagulation time is thereafter measured. It should be noted that the anticoagulant activity of the test compound is described in terms of the concentration required to double the coagulation time for the case where no test compound is added.

The target in the next test is T2, trypsin (Bos taurus, UniProt P00760).
T2 construct: gene PRSS1
T2 sequence (P00760 24-246): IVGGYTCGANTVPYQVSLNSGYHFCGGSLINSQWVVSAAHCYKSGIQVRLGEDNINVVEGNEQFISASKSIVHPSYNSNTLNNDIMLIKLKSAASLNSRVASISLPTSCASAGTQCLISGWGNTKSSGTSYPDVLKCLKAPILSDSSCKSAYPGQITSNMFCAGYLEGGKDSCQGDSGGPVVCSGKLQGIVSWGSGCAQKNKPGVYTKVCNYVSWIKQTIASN
Kind of test: Inhibitory activity for trypsin. Particulars: FXa versus trypsin.

As usually defined, the pIC50 is −log10 of the IC50, conventionally taken in molar units. Low readings indicate a large IC50, high ones a small IC50.

T1 sequence (P00742 235-488 limits assumed): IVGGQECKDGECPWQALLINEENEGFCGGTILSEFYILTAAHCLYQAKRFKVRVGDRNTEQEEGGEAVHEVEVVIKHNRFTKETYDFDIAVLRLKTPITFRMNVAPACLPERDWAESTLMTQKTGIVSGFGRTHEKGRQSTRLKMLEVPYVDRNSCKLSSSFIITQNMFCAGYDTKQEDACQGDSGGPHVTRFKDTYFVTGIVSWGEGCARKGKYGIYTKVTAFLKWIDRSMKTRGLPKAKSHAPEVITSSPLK
T1 sequence (P00742 41-179 partner limits assumed): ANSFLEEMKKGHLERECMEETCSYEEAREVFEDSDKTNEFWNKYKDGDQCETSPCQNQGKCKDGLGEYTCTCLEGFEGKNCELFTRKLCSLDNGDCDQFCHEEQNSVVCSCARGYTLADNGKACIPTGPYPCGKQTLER

In turn, `O=C(O)COCC12CN(S(=O)(=O)c3ccc4cc(Cl)ccc4c3)CC(=O)N1CC1(CCN(c3ccncc3)CC1)O2` (stereo not shown) [Example 5, 1,4-Diaza-4-(6-chloronaphthalen-2-ylsulfonyl)-6-(carboxymethoxymethyl)-7-oxa-1′-(4-pyridyl)spiro[bicyclo[4.3.0]nonane-8,4′-piperidin]-2-one] showed a pIC50 against human FXa of 8.54. In addition, the “Concentration required to double coagulation time” value in the test with human plasma was found to be 0.43 µM.
Compound `CCOC(=O)C12CN(S(=O)(=O)c3ccc4cc(Cl)ccc4c3)CC(=O)N1CC1(CCN(c3ccncc3)CC1)O2` (stereo not shown) [Example 25, 1,4-Diaza-4-(6-chloronaphthalen-2-ylsulfonyl)-6-(ethoxycarbonyl)-7-oxa-1′-(4-pyridyl)spiro[bicyclo[4.3.0]nonane-8,4′-piperidin]-2-one] showed a pIC50 at human FXa of 8.82.
On human FXa, `COCC12CN(S(=O)(=O)c3ccc4cc(Cl)ccc4c3)CC(=O)N1CC1(CCN(c3ccncc3)CC1)O2` (stereo not shown) [Example 1, 1,4-Diaza-4-(6-chloronaphthalen-2-ylsulfonyl)-6-(methoxymethyl)-7-oxa-1′-(4-pyridyl)spiro[bicyclo[4.3.0]nonane-8,4′-piperidin]-2-one] showed a pIC50 of 8.49.
Still for that read-out and setting: the value for `O=C1CN(S(=O)(=O)c2cc3ccc(Cl)cc3s2)CC2OC3(CCN(c4ccncc4)CC3)CN12` (stereo not shown) [Example 213, 1,4-Diaza-4-(6-chlorobenzo[b]thiophen-2-ylsulfunyl)-7-oxa-1′-(4-pridyl)spiro[bicyclo[4.3.0]nonane-8,4′-piperidin]-2-one] was 9.22; that for `COCC12CN(S(=O)(=O)C=Cc3ccc(Cl)s3)CC(=O)N1CC1(CCN(c3ccncc3)CC1)N2` (stereo not shown) [Example 712, 1,4,7-Triaza-4-[2-(5-chlorothiophen-2-yl)ethenesulfonyl]-6-(methoxymethyl)-1′-(4-pyridyl)spiro[bicyclo[4.3.0]nonane-8,4′-piperidin]-2-one] was 8.74.
For `COCC12CN(S(=O)(=O)c3ccc4cc(Cl)ccc4c3)CC(=O)N1CC1(CCN(c3ccncc3)CC1)O2` (single isomer, unassigned; (-)) [Compound A, (−)-1,4-diaza-4-(6-chloronaphthalen-2-ylsulfonyl)-6-(methoxymethyl)-7-oxa-1′-(4-pyridyl)spiro[bicyclo[4.3.0]nonane-8,4′-piperidin]-2-one], the selectivity for trypsin result at trypsin is reported as “remarkably high selectivity”.
